Assay results from patent US11944614B2, “Imidazo[4,5-c]pyridine compounds as LSD-1 inhibitors” (THE REGENTS OF THE UNIVERSITY OF MICHIGAN, priority 2018, dated 2024).

Biological target: Human recombinant LSD1 protein (Homo sapiens (Human), UniProt O60341)
Assay: LSD1 enzymatic activity, AlphaLISA demethylation assay
Type: biochemical
Conditions: 4 nM LSD1, 80 nM Biotin-H3K4Me peptide substrate, 1% DMSO, 60 minutes reaction
Method: Human recombinant LSD1 protein expressed in E. coli cells was purchased from Active Motif (Carlsbad, Calif.). Biotin-labeled Histone H3K4Me peptide (residues 1-21 with Lys 4 monomethylated) substrate was purchased from Anaspec (Fremont, Calif.). Enzymatic activity was assessed using the AlphaLISA technology from Perkin Elmer Life Sciences (Waltham, Mass.). 2.5 μL of compound solution and 5 μL of LSD1 solutions in the assay buffer (50 mM Tris, pH 9.0, 50 mM NaCl with 0.01% Tween20 and 1 mM DTT added right before the assay) were added into a white low volume 384 well microtiter plate. This mixture solution was incubated for 15 minutes with gentle shaking at room temperature. Demethylation reaction was initiated by adding 2.5 μL of Biotin-H3K4Me peptide substrate solution in the assay buffer. Final concentrations of LSD1, Biotin-H3K4Me peptide substrate, and DMSO were 4 nM, 80 nM, and 1%, respectively. The reaction was allowed to proceed for 60 minutes in dark with gentle shaking at room temperature, after which 5 μL of Anti-H3K4 AlphaLISA acceptor beads in detection buffer from the manufacturer was added into the reaction mixture followed by incubation for 60 minutes. 10 μL of Streptavidin labeled AlphaLISA donor beads in detection buffer was added into the mixture followed by 30-minute incubation. Final acceptor and donor beads concentrations were both at 10 μg/mL. Plates were read on a BMG CLARIOStar multimode plate reader from BMG Labtech (Ortenberg, Germany) with an excitation wavelength of 680 nm and emission wavelength of 615 nm. IC50 values of inhibitors were obtained by fitting the fluorescence intensity vs inhibitor concentrations in a sigmoidal dose-response curve (variable slope) with a non-linear regression using Prism 7 (La Jolla, Calif.).

SMILES	IC50 [nM]
CN1CCC(Cn2cnc3c(-c4ccc(C#N)c(F)c4)c(-c4ccc5c(c4)OCO5)ncc32)CC1 [compound 15, 4-(6-(benzo[d][1,3]dioxol-5-yl)-3-((1-methylpiperidin-4-yl)methyl)-3H-imidazo[4,5-c]pyridin-7-yl)-2-fluorobenzonitrile]	27.8
CN1CCC(Cn2cnc3c(-c4ccc(C#N)cc4)c(-c4ccc5c(ccn5C)c4)ncc32)CC1 [compound 7, 4-(6-(1-methyl-1H-indol-5-yl)-3-((1-methylpiperidin-4-yl)methyl)-3H-imidazo[4,5-c]pyridin-7-yl)benzonitrile]	68
CN1CC[C@H](Cn2cnc3c(-c4ccc(C#N)c(F)c4)c(-c4ccc5c(cnn5C)c4)ncc32)C1 [compound 16, (S)-2-fluoro-4-(6-(1-methyl-1H-indazol-5-yl)-3-((1-methylpyrrolidin-3-yl)methyl)-3H-imidazo[4,5-c]pyridin-7-yl)benzonitrile]	28
Cn1ncc2cc(-c3ncc4c(ncn4CC4CCCNCC4)c3-c3ccc(C#N)c(F)c3)ccc21 (stereo not shown) [compound 21, 4-(3-(azepan-4-ylmethyl)-6-(1-methyl-1H-indazol-5-yl)-3H-imidazo[4,5-c]pyridin-7-yl)-2-fluorobenzonitrile]	17.3
CN1CCC(Cn2cnc3c(-c4ccc(C#N)c(F)c4)c(-c4ccc5c(c4)CC(=O)N5C)ncc32)CC1 [compound 3, 2-fluoro-4-(6-(1-methyl-2-oxoindolin-5-yl)-3-((1-methylpiperidin-4-yl)methyl)-3H-imidazo[4,5-c]pyridin-7-yl)benzonitrile]	220
CN1CCC(Cn2cnc3c(-c4ccc(C#N)c(F)c4)c(-c4ccc5c(ccn5C)c4)ncc32)CC1 [compound 2, 2-fluoro-4-(6-(1-methyl-1H-indol-5-yl)-3-((1-methylpiperidin-4-yl)methyl)-3H-imidazo[4,5-c]pyridin-7-yl)benzonitrile]	237
CCn1ncc2cc(-c3ncc4c(ncn4CC4CCN(C)CC4)c3-c3ccc(C#N)cc3)ccc21 [compound 11, 4-(6-(1-ethyl-1H-indazol-5-yl)-3-((1-methylpiperidin-4-yl)methyl)-3H-imidazo[4,5-c]pyridin-7-yl)benzonitrile]	116
CN1CCC(Cn2cnc3c(-c4ccc(C#N)c(F)c4)c(-c4ccc5c(c4)OCCN5C)ncc32)CC1 [compound 8, 2-fluoro-4-(6-(4-methyl-3,4-dihydro-2H-benzo[b][1,4]oxazin-7-yl)-3-((1-methylpiperidin-4-yl)methyl)-3H-imidazo[4,5-c]pyridin-7-yl)benzonitrile]	16.2
CN1CCC(Cn2cnc3c(-c4ccc(C#N)cc4)c(-c4ccc5nn(C)cc5c4)ncc32)CC1 [compound 13, 4-(6-(2-methyl-2H-indazol-5-yl)-3-((1-methylpiperidin-4-yl)methyl)-3H-imidazo[4,5-c]pyridin-7-yl)benzonitrile]	115
Cc1nc2cc(-c3ncc4c(ncn4CC4CCN(C)CC4)c3-c3ccc(C#N)c(F)c3)ccc2s1 [compound 5, 2-fluoro-4-(6-(2-methylbenzo[d]thiazol-5-yl)-3-((1-methylpiperidin-4-yl)methyl)-3H-imidazo[4,5-c]pyridin-7-yl)benzonitrile]	928
CN1CCOc2ccc(-c3ncc4c(ncn4C[C@H]4CCNC4)c3-c3ccc(C#N)c(F)c3)cc21 [compound 29, (S)-2-fluoro-4-(6-(4-methyl-3,4-dihydro-2H-benzo[b][1,4]oxazin-6-yl)-3-(pyrrolidin-3-ylmethyl)-3H-imidazo[4,5-c]pyridin-7-yl)benzonitrile]	47
CN1CCC(Cn2cnc3c(-c4ccc(C#N)cc4)c(-c4ccc5c(cnn5C)c4)ncc32)CC1 [compound 6, 4-(6-(1-methyl-1H-indazol-5-yl)-3-((1-methylpiperidin-4-yl)methyl)-3H-imidazo[4,5-c]pyridin-7-yl)benzonitrile]	66.3
CN1CCC(Cn2cnc3c(-c4ccc(C#N)cc4)c(-c4ccc5c(cnn5C)c4)ncc32)C1 (stereo not shown) [compound 31, 4-(6-(1-methyl-1H-indazol-5-yl)-3-((1-methylpyrrolidin-3-yl)methyl)-3H-imidazo[4,5-c]pyridin-7-yl)benzonitrile]	87.2
CN1CCC(Cn2cnc3c(-c4ccc(C#N)cc4)c(-c4ccc5c(c4)OCCN5C)ncc32)CC1 [compound 10, 4-(6-(4-methyl-3,4-dihydro-2H-benzo[b][1,4]oxazin-7-yl)-3-((1-methylpiperidin-4-yl)methyl)-3H-imidazo[4,5-c]pyridin-7-yl)benzonitrile]	53.1
CN1CCC(Cn2cnc3c(-c4ccc(C#N)c(F)c4)c(-c4ccc5nn(C)cc5c4)ncc32)CC1 [compound 12, 2-fluoro-4-(6-(2-methyl-2H-indazol-5-yl)-3-((1-methylpiperidin-4-yl)methyl)-3H-imidazo[4,5-c]pyridin-7-yl)benzonitrile]	97.6
CN1CCC(Cn2cnc3c(-c4ccc(C#N)c(F)c4)c(-c4ccc5c(cnn5C)c4)ncc32)CC1 [Cpd. No. 1, 2-fluoro-4-(6-(1-methyl-1H-indazol-5-yl)-3-((1-methylpiperidin-4-yl)methyl)-3H-imidazo[4,5-c]pyridin-7-yl)benzonitrile]	40.1
CN1CCC(Cn2cnc3c(-c4ccc(C#N)cc4)c(-c4ccc(C#N)cc4)ncc32)CC1 [compound 9, 4,4′-(3-((1-methylpiperidin-4-yl)methyl)-3H-imidazo[4,5-c]pyridine-6,7-diyl)dibenzonitrile]	> 1000
Cn1ccc2cc(-c3ncc4c(ncn4C[C@H]4CCNC4)c3-c3ccc(C#N)c(F)c3)cnc21 [compound 27, (S)-2-fluoro-4-(6-(1-methyl-1H-pyrrolo[2,3-b]pyridin-5-yl)-3-(pyrrolidin-3-ylmethyl)-3H-imidazo[4,5-c]pyridin-7-yl)benzonitrile]	53.3

Stronger by IC50, values ahead:

IC50 [nM]	SMILES
15.7	CN1CCC(Cn2cnc3c(-c4ccc(C#N)cc4)c(-c4ccc5c(c4)OCO5)ncc32)CC1 [compound 14, 4-(6-(benzo[d][1,3]dioxol-5-yl)-3-((1-methylpiperidin-4-yl)methyl)-3H-imidazo[4,5-c]pyridin-7-yl)benzonitrile]
14.7	CN1CCOc2cc(-c3ncc4c(ncn4CC4CCNCC4)c3-c3ccc(C#N)cc3)ccc21 [compound 26, 4-(6-(4-methyl-3,4-dihydro-2H-benzo[b][1,4]oxazin-7-yl)-3-(piperidin-4-ylmethyl)-3H-imidazo[4,5-c]pyridin-7-yl)benzonitrile]
13.7	Cn1ncc2cc(-c3ncc4c(ncn4CC4CCNCC4)c3-c3ccc(C#N)cc3)ccc21 [compound 20, 4-(6-(1-methyl-1H-indazol-5-yl)-3-(piperidin-4-ylmethyl)-3H-imidazo[4,5-c]pyridin-7-yl)benzonitrile]
13	CN1CCOc2cc(-c3ncc4c(ncn4CC4CCCNCC4)c3-c3ccc(C#N)c(F)c3)ccc21 (stereo not shown) [compound 23, 4-(3-(azepan-4-ylmethyl)-6-(4-methyl-3,4-dihydro-2H-benzo[b][1,4]oxazin-7-yl)-3H-imidazo[4,5-c]pyridin-7-yl)-2-fluorobenzonitrile]
12.1	CN1CCOc2cc(-c3ncc4c(ncn4C[C@H]4CCNC4)c3-c3ccc(C#N)c(F)c3)ccc21 [compound 17, (S)-2-fluoro-4-(6-(4-methyl-3,4-dihydro-2H-benzo[b][1,4]oxazin-7-yl)-3-(pyrrolidin-3-ylmethyl)-3H-imidazo[4,5-c]pyridin-7-yl)benzonitrile]
12	CN1CC[C@H](Cn2cnc3c(-c4ccc(C#N)c(F)c4)c(-c4ccc5c(c4)OCCN5C)ncc32)C1 [compound 18, (S)-2-fluoro-4-(6-(4-methyl-3,4-dihydro-2H-benzo[b][1,4]oxazin-7-yl)-3-((1-methylpyrrolidin-3-yl)methyl)-3H-imidazo[4,5-c]pyridin-7-yl)benzonitrile]
11.8	Cn1ncc2cc(-c3ncc4c(ncn4CC4CCNCC4)c3-c3ccc(C#N)c(F)c3)ccc21 [Cpd. No. 19, 2-fluoro-4-(6-(1-methyl-1H-indazol-5-yl)-3-(piperidin-4-ylmethyl)-3H-imidazo[4,5-c]pyridin-7-yl)benzonitrile]
11	CN1CCOc2cc(-c3ncc4c(ncn4CC4CCCNCC4)c3-c3ccc(C#N)cc3)ccc21 (stereo not shown) [compound 24, 4-(3-(azepan-4-ylmethyl)-6-(4-methyl-3,4-dihydro-2H-benzo[b][1,4]oxazin-7-yl)-3H-imidazo[4,5-c]pyridin-7-yl)benzonitrile]
9.57	N#Cc1ccc(-c2c(-c3ccc4c(c3)OCCO4)ncc3c2ncn3C[C@H]2CCNC2)cc1F [compound 28, (S)-4-(6-(2,3-dihydrobenzo[b][1,4]dioxin-6-yl)-3-(pyrrolidin-3-ylmethyl)-3H-imidazo[4,5-c]pyridin-7-yl)-2-fluorobenzonitrile]
5.67	CN1CCOc2cc(-c3ncc4c(ncn4CC4CCNC4)c3-c3ccc(C#N)cc3)ccc21 (stereo not shown) [compound 32, 4-(6-(4-methyl-3,4-dihydro-2H-benzo[b][1,4]oxazin-7-yl)-3-(pyrrolidin-3-ylmethyl)-3H-imidazo[4,5-c]pyridin-7-yl)benzonitrile]
